Earlier results, collected in patent US20090087484A1, “Formulation and dosage form for increasing oral bioavailability of hydrophilic macromolecules” (priority 2007, published 2009).
Like-named read-outs stand apart in the source and are kept apart here.

Assays:
[1] = in vivo

| Compound | oral bioavailability [1] | elimination half-life in urine (after oral administration) [h] | oral bioavailability (in humans) | elimination half-life (mean value, following IV injection) [h] |
| --- | --- | --- | --- | --- |
| NC(=O)CC[C@@H]1NC(=O)[C@H](Cc2ccccc2)NC(=O)[C@H](Cc2ccc(O)cc2)NC(=O)CCSSC[C@@H](C(=O)N2CCC[C@H]2C(=O)N[C@H](CCCN=C(N)N)C(=O)NCC(N)=O)NC(=O)[C@H](CC(N)=O)NC1=O [dDAVP, Desmopressin] | about 0.15% |  |  |  |
| pentosan polysulfate sodium [PPS] |  | 4.8 | approximately 3% | 24 |
